# Key:
# Details in all cases: incubation time: 72 h
# [1] = system: BT-474; test: normalised response (% of control), CellTox Green; higher = less cell death (100 = DMSO, 0 = benzethonium chloride kill control)
# In short: (§1)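 Each entry is the normalised signal at a single concentration within a series. The series comprised 5 concentrations in 10-fold steps over a compound-specific 10,000-fold range, placed in 384-well plates into which breast cancer cell lines were seeded as 20 µl suspension and incubated 72 h. CellTox Green (485/520 nm) fluorescence and then CellTiter-Glo luminescence were read, with signals normalised per plate to 0.1 % DMSO (100) and a positive kill control (0).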
# [2] = system: BT-549; test: as above
# In short: as §1
# [3] = system: CAL-120; test: as above
# In short: as §1
# [4] = system: CAL-148; test: as above
# In short: as §1
# [5] = system: CAL-51; test: as above
# In short: as §1
# [6] = system: CAL-85-1; test: as above
# In short: as §1
# [7] = system: DU-4475; test: as above
# In short: as §1
# [8] = system: HCC1143; test: as above
# In short: as §1
# [9] = system: HCC1599; test: as above
# In short: as §1
# [10] = system: HCC1937; test: as above
# In short: as §1
# [11] = system: HDQ-P1; test: as above
# In short: as §1
# [12] = system: Hs578T; test: as above
# In short: as §1
# [13] = system: MCF-10A; test: as above
# In short: as §1
# [14] = system: MDA-MB-231; test: as above
# In short: as §1
# [15] = system: MDA-MB-436; test: as above
# In short: as §1
# [16] = system: MDA-MB-453; test: as above
# In short: as §1
# [17] = system: MDA-MB-468; test: as above
# In short: as §1
# [18] = system: MFM-223; test: as above
# In short: as §1
# [19] = system: BT-474; test: normalised response (% of control), CellTiter-Glo; higher = more viable cells (100 = DMSO, 0 = benzethonium chloride kill control)
# In short: as §1
# [20] = system: BT-549; test: as above
# In short: as §1
# [21] = system: CAL-120; test: as above
# In short: as §1
# [22] = system: CAL-148; test: as above
# In short: as §1
# [23] = system: CAL-51; test: as above
# In short: as §1
# [24] = system: CAL-85-1; test: as above
# In short: as §1
# [25] = system: DU-4475; test: as above
# In short: as §1
# [26] = system: HCC1143; test: as above
# In short: as §1
# [27] = system: HCC1599; test: as above
# In short: as §1
# [28] = system: HCC1937; test: as above
# In short: as §1
# [29] = system: HDQ-P1; test: as above
# In short: as §1
# [30] = system: Hs578T; test: as above
# In short: as §1
# [31] = system: MCF-10A; test: as above
# In short: as §1
# [32] = system: MDA-MB-231; test: as above
# In short: as §1
# [33] = system: MDA-MB-436; test: as above
# In short: as §1
# [34] = system: MDA-MB-453; test: as above
# In short: as §1
# [35] = system: MDA-MB-468; test: as above
# In short: as §1
# [36] = system: MFM-223; test: as above
# In short: as §1
# [37] = system: SK-BR-3; test: as above
# In short: as §1
Compound,normalised response [1],normalised response [2],normalised response [3],normalised response [4],normalised response [5],normalised response [6],normalised response [7],normalised response [8],normalised response [9],normalised response [10],normalised response [11],normalised response [12],normalised response [13],normalised response [14],normalised response [15],normalised response [16],normalised response [17],normalised response [18],normalised response [19],normalised response [20],normalised response [21],normalised response [22],normalised response [23],normalised response [24],normalised response [25],normalised response [26],normalised response [27],normalised response [28],normalised response [29],normalised response [30],normalised response [31],normalised response [32],normalised response [33],normalised response [34],normalised response [35],normalised response [36],normalised response [37]
CC(=O)c1c(C)c2cnc(Nc3ccc(N4CCNCC4)cn3)nc2n(C2CCCC2)c1=O [Palbociclib] (1000 nM),95.2%,109%,102%,89.8%,126%,114%,99%,70.3%,98.1%,102%,103%,108%,105%,109%,100%,101%,167%,98.4%,78.1%,102%,84.6%,86.2%,103%,104%,94.4%,80.3%,91.6%,94.8%,105%,93.3%,82.5%,84%,96.6%,102%,86.7%,72.6%,75.9%
COc1cc(F)c(F)c(Nc2ccc(I)cc2F)c1NS(=O)(=O)C1(C[C@H](O)CO)CC1 [Refametinib] (1000 nM),99.7%,115%,86.8%,99.3%,101%,46.6%,57.4%,70.5%,95.8%,113%,82.9%,109%,92.6%,39.2%,97.5%,106%,120%,99.6%,62.4%,95.7%,66.1%,89.2%,99.3%,52.2%,0.17%,77.2%,116%,79.4%,54.5%,80.1%,28.3%,59.4%,78.4%,96.3%,72.7%,75.9%,82.4%

# From the supplement of paper PMC4862054
